Reference: ChEMBL document CHEMBL4831520, “Discovery of First-in-Class Dual PARP and EZH2 Inhibitors for Triple-Negative Breast Cancer with Wild-Type BRCA” (J Med Chem, 2021)

Key:
MCF7 = experiment: cells; assay type: functional, cell-based; conditions: Homo sapiens, MCF7, 72 h
Description: Antiproliferative activity against human MCF7 cells assessed as cell viability after 72 hrs by MTT assay

MDA-MB-468 = experiment: cells; assay type: functional, cell-based; conditions: Homo sapiens, MDA-MB-468, 72 h
Description: Antiproliferative activity against human MDA-MB-468 cells assessed as cell viability after 72 hrs by MTT assay

MDA-MB-231 = experiment: cells; assay type: functional, cell-based; conditions: Homo sapiens, MDA-MB-231, 72 h
Description: Antiproliferative activity against human MDA-MB-231 cells assessed as cell viability after 72 hrs by MTT assay

[1] = biological target: T1, Histone-lysine N-methyltransferase EZH2 (Homo sapiens, UniProt Q15910); conditions: time 3.0 hrs
Target sequence in this assay (Q15910 whole entry, looked up): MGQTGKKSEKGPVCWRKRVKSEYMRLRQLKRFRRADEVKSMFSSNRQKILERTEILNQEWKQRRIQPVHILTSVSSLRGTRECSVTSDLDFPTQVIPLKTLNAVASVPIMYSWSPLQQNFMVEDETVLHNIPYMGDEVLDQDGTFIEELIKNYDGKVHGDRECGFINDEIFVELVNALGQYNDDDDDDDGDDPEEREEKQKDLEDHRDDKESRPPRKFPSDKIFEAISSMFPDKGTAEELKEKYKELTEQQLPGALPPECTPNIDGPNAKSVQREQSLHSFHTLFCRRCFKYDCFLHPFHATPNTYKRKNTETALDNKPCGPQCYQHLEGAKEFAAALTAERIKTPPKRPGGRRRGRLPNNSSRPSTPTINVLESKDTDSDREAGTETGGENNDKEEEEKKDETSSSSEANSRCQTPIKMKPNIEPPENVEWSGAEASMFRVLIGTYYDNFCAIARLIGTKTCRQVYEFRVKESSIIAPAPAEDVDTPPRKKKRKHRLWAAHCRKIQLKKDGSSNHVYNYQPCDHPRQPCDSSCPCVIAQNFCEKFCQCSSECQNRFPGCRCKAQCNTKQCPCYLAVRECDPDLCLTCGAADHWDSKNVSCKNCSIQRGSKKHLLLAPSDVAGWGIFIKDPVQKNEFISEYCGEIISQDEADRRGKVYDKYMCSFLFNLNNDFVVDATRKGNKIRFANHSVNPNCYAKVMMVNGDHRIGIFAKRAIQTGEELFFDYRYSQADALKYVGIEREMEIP

MCF-10A = experiment: cells; assay type: ADME, cell-based; conditions: Homo sapiens, 72 h
Description: Antiproliferative activity against human MCF-10A cells assessed as cell viability after 72 hrs by MTT assay

[2] = biological target: T1, Histone-lysine N-methyltransferase EZH2
Target sequence in this assay (Q15910 whole entry): as the sequence (Q15910 whole entry, looked up) above
Description: Inhibition of recombinant PRC2 complex (unknown origin) assessed as kd/ka using H3K27me0 peptide substrate incubated for 3 hrs by HMT assay

[3] = biological target: T1, Histone-lysine N-methyltransferase EZH2; remark: listed apart in the source
Target sequence in this assay (Q15910 whole entry): as the sequence (Q15910 whole entry, looked up) above
Description: Inhibition of recombinant PRC2 complex (unknown origin) assessed as dissociation rate constant using H3K27me0 peptide substrate incubated for 3 hrs by HMT assay

[4] = biological target: T1, Histone-lysine N-methyltransferase EZH2; remark: listed apart in the source
Target sequence in this assay (Q15910 whole entry): as the sequence (Q15910 whole entry, looked up) above

Row | SMILES | IC50 (MCF7) | IC50 (MDA-MB-468) | IC50 (MDA-MB-231) | Ka [1] | IC50 (MCF-10A) | Kd [2] | Kd [3] | IC50 [4]
1 | C=C(C)C(=O)N(CC)c1cc(-c2ccc(N3CCN(C(=O)c4cc(Cc5n[nH]c(=O)c6ccccc56)ccc4F)CC3)nc2)cc(C(=O)NCc2c(C)cc(C)[nH]c2=O)c1C | 21.2 µM | 2.78 µM | 8.73 µM | 1.11 10^6/M/s | > 50 µM | 38.77 s⁻¹ | 0.04302 s⁻¹ | –
2 | Cc1cc(C)c(CNC(=O)c2cc(-c3ccc(N4CCN(C(=O)c5cc(Cc6n[nH]c(=O)c7ccccc67)ccc5F)CC4)nc3)cc3c2ccn3C)c(=O)[nH]1 | > 50 µM | > 50 µM | > 50 µM | – | > 50 µM | – | – | –
3 | CCN(C(C)=O)c1cc(-c2ccc(N3CCN(C(=O)c4cc(Cc5n[nH]c(=O)c6ccccc56)ccc4F)CC3)nc2)cc(C(=O)NCc2c(C)cc(C)[nH]c2=O)c1C | 26.2 µM | 9.56 µM | 18.4 µM | – | > 50 µM | – | – | –
4 | Cc1cc(C)c(CNC(=O)c2cccc(-c3ccc(N4CCN(C(=O)c5cc(Cc6n[nH]c(=O)c7ccccc67)ccc5F)CC4)nc3)c2)c(=O)[nH]1 | 48.4 µM | 29.7 µM | 25 µM | – | > 50 µM | – | – | –
5 | CCC(=O)Nc1cc(-c2ccc(N3CCN(C(=O)c4cc(Cc5n[nH]c(=O)c6ccccc56)ccc4F)CC3)nc2)cc(C(=O)NCc2c(C)cc(C)[nH]c2=O)c1C | 17.7 µM | 0.33 µM | 8.72 µM | 4.98 10^6/M/s | > 50 µM | 18.37 s⁻¹ | 0.09155 s⁻¹ | –
6 | COc1cc(C)c(C(=O)NCc2c(C)cc(C)[nH]c2=O)cc1-c1ccc(N2CCN(C(=O)c3cc(Cc4n[nH]c(=O)c5ccccc45)ccc3F)CC2)nc1 | 44.2 µM | 1940 µM | 26.1 µM | – | > 50 µM | – | – | –
7 | Cc1cc(C)c(CNC(=O)c2cc(-c3ccc(N4CCN(C(=O)c5cc(Cc6n[nH]c(=O)c7ccccc67)ccc5F)CC4)nc3)ccc2C)c(=O)[nH]1 | > 50 µM | 28.3 µM | 30.2 µM | – | > 50 µM | – | – | –
8 | CC[C@H](C)n1nc(C)c2c(C(=O)NCc3c(C)cc(C)[nH]c3=O)cc(-c3ccc(N4CCNCC4)nc3)cc21 | 19.5 µM | 9.97 µM | 9.26 µM | 3.23 10^6/M/s | > 50 µM | 21.44 s⁻¹ | 0.06934 s⁻¹ | 0.0108 µM
9 | Cc1cc(C)c(CNC(=O)c2cc(-c3ccc(N4CCN(C(=O)c5cc(Cc6n[nH]c(=O)c7ccccc67)ccc5F)CC4)nc3)cc([N+](=O)[O-])c2)c(=O)[nH]1 | > 50 µM | > 50 µM | > 50 µM | – | > 50 µM | – | – | –
10 | Cc1cc(C)c(CNC(=O)c2cc(-c3ccc(N4CCN(C(=O)c5cc(Cc6n[nH]c(=O)c7ccccc67)ccc5F)CC4)nc3)cc(N)c2C)c(=O)[nH]1 | 37.4 µM | 12.1 µM | 1920 µM | – | > 50 µM | – | – | –
11 | CCCC(=O)Nc1cc(-c2ccc(N3CCN(C(=O)c4cc(Cc5n[nH]c(=O)c6ccccc56)ccc4F)CC3)nc2)cc(C(=O)NCc2c(C)cc(C)[nH]c2=O)c1C | 33.2 µM | 3.89 µM | 26.1 µM | – | > 50 µM | – | – | –
12 | Cc1cc(C)c(CNC(=O)c2cc(-c3ccc(N4CCN(C(=O)c5cc(Cc6n[nH]c(=O)c7ccccc67)ccc5F)CC4)nc3)cc(N(C)C)c2C)c(=O)[nH]1 | 38 µM | 15.2 µM | 23.2 µM | – | > 50 µM | – | – | –
13 | Cc1cc(C)c(CNC(=O)c2cc(-c3ccc(N4CCN(C(=O)c5cc(Cc6n[nH]c(=O)c7ccccc67)ccc5F)CC4)nc3)cc([N+](=O)[O-])c2C)c(=O)[nH]1 | > 50 µM | > 50 µM | > 50 µM | – | > 50 µM | – | – | –
14 | Cc1cc(C)c(CNC(=O)c2cc(-c3ccc(N4CCN(C(=O)c5cc(Cc6n[nH]c(=O)c7ccccc67)ccc5F)CC4)nc3)cc(NC(C)C)c2C)c(=O)[nH]1 | > 50 µM | 16.5 µM | > 50 µM | – | > 50 µM | – | – | –
15 | Cc1cc(C)c(CNC(=O)c2cc(-c3ccc(N4CCN(C(=O)c5cc(Cc6n[nH]c(=O)c7ccccc67)ccc5F)CC4)nc3)cc3c2ccn3C(C)C)c(=O)[nH]1 | 47.5 µM | 21.6 µM | 33.5 µM | – | > 50 µM | – | – | –
16 | Cc1cc(C)c(CNC(=O)c2cc(-c3ccc(N4CCN(C(=O)c5cc(Cc6n[nH]c(=O)c7ccccc67)ccc5F)CC4)nc3)cc3c2cnn3C(C)C)c(=O)[nH]1 | 40.2 µM | 17.9 µM | 25.8 µM | – | > 50 µM | – | – | –

Row | SMILES | IC50 (MCF7) | IC50 (MDA-MB-468) | IC50 (MDA-MB-231) | Ka [1] | IC50 (MCF-10A) | Kd [2] | Kd [3] | IC50 [4]
17 | Cc1cc(C)c(CNC(=O)c2ccc(C)c(-c3ccc(N4CCN(C(=O)c5cc(Cc6n[nH]c(=O)c7ccccc67)ccc5F)CC4)nc3)c2)c(=O)[nH]1 | > 50 µM | 28.8 µM | > 50 µM | – | > 50 µM | – | – | –
18 | COC1CCN(C(=O)c2cc(Cc3n[nH]c(=O)c4ccccc34)ccc2F)CC1 [AZD2461] | > 50 µM | 35.6 µM | 36.9 µM | – | > 50 µM | – | – | –
19 | Cc1cc(C)c(CNC(=O)c2cc(-c3ccc(N4CCN(C(=O)c5cc(Cc6n[nH]c(=O)c7ccccc67)ccc5F)CC4)nc3)cc3c2cnn3C(=O)N(C)C)c(=O)[nH]1 | > 50 µM | > 50 µM | > 50 µM | – | > 50 µM | – | – | –
20 | C=CCn1ncc2c(C(=O)NCc3c(C)cc(C)[nH]c3=O)cc(-c3ccc(N4CCN(C(=O)c5cc(Cc6n[nH]c(=O)c7ccccc67)ccc5F)CC4)nc3)cc21 | > 50 µM | > 50 µM | > 50 µM | – | > 50 µM | – | – | –
21 | Cc1cc(C)c(CNC(=O)c2cc(-c3ccc(N4CCN(C(=O)c5cc(Cc6n[nH]c(=O)c7ccccc67)ccc5F)CC4)nc3)cc(C(F)(F)F)c2)c(=O)[nH]1 | > 50 µM | > 50 µM | 43.4 µM | – | > 50 µM | – | – | –
22 | CCN(c1cc(-c2ccc(N3CCN(C(=O)c4cc(Cc5n[nH]c(=O)c6ccccc56)ccc4F)CC3)nc2)cc(C(=O)NCc2c(C)cc(C)[nH]c2=O)c1C)C1CCOCC1 | > 50 µM | > 50 µM | > 50 µM | – | > 50 µM | – | – | –
23 | CNc1cc(-c2ccc(N3CCN(C(=O)c4cc(Cc5n[nH]c(=O)c6ccccc56)ccc4F)CC3)nc2)cc(C(=O)NCc2c(C)cc(C)[nH]c2=O)c1C | > 50 µM | 17.3 µM | 46 µM | – | > 50 µM | – | – | –
24 | CCC(=O)N(CC)c1cc(-c2ccc(N3CCN(C(=O)c4cc(Cc5n[nH]c(=O)c6ccccc56)ccc4F)CC3)nc2)cc(C(=O)NCc2c(C)cc(C)[nH]c2=O)c1C | 18.2 µM | 2.11 µM | 2.82 µM | 6.39 10^5/M/s | > 50 µM | 31.74 s⁻¹ | 0.02027 s⁻¹ | –
25 | Cc1cc(C)c(CNC(=O)c2cc(-c3ccc(N4CCN(C(=O)c5cc(Cc6n[nH]c(=O)c7ccccc67)ccc5F)CC4)nc3)cc(NC(=O)CC(C)C)c2C)c(=O)[nH]1 | 20 µM | 0.76 µM | 9.42 µM | 4.54 10^6/M/s | > 50 µM | 25.46 s⁻¹ | 0.1116 s⁻¹ | –
26 | CCn1ccc2c(C(=O)NCc3c(C)cc(C)[nH]c3=O)cc(-c3ccc(N4CCN(C(=O)c5cc(Cc6n[nH]c(=O)c7ccccc67)ccc5F)CC4)nc3)cc21 | > 50 µM | > 50 µM | > 50 µM | – | > 50 µM | – | – | –
27 | C=C(C)C(=O)Nc1cc(-c2ccc(N3CCN(C(=O)c4cc(Cc5n[nH]c(=O)c6ccccc56)ccc4F)CC3)nc2)cc(C(=O)NCc2c(C)cc(C)[nH]c2=O)c1C | 30.1 µM | 2.21 µM | 17.9 µM | – | > 50 µM | – | – | –
28 | Cc1cc(C)c(CNC(=O)c2cc(-c3ccc(N4CCN(C(=O)c5cc(Cc6n[nH]c(=O)c7ccccc67)ccc5F)CC4)nc3)cc(NC(=O)CCC(=O)N(C)C)c2C)c(=O)[nH]1 | 30.4 µM | 8.24 µM | 22.1 µM | – | > 50 µM | – | – | –
29 | Cc1cc(C)c(CNC(=O)c2cc(-c3ccc(N4CCN(C(=O)c5cc(Cc6n[nH]c(=O)c7ccccc67)ccc5F)CC4)nc3)cc3c2cnn3C)c(=O)[nH]1 | > 50 µM | > 50 µM | > 50 µM | – | > 50 µM | – | – | –
30 | Cc1cc(C(=O)NCc2c(C)cc(C)[nH]c2=O)cc(-c2ccc(N3CCN(C(=O)c4cc(Cc5n[nH]c(=O)c6ccccc56)ccc4F)CC3)nc2)c1 | > 50 µM | 32.5 µM | > 50 µM | – | > 50 µM | – | – | –
31 | CC(=O)Nc1cc(-c2ccc(N3CCN(C(=O)c4cc(Cc5n[nH]c(=O)c6ccccc56)ccc4F)CC3)nc2)cc(C(=O)NCc2c(C)cc(C)[nH]c2=O)c1C | 12.1 µM | 0.41 µM | 2.63 µM | 1.09 10^6/M/s | > 50 µM | 14.56 s⁻¹ | 0.01586 s⁻¹ | 0.0365 µM
32 | CCNc1cc(-c2ccc(N3CCN(C(=O)c4cc(Cc5n[nH]c(=O)c6ccccc56)ccc4F)CC3)nc2)cc(C(=O)NCc2c(C)cc(C)[nH]c2=O)c1C | > 50 µM | 9.56 µM | 32.3 µM | – | > 50 µM | – | – | –
